Experimental data: PMC8101546 (Biochimica et biophysica acta. Molecular cell research, 2018)

How the values were obtained:
[1] = system: U2OS cells; experiment: Ca2+ mobilization after microinjection into U2OS cells expressing GCaMP6M; assay type: cell-based, human; conditions: GCaMP6M fluorescence
[2] = system: 23 kDa protein; assay type: binding, human; conditions: U2OS cell extracts; for IC50: read-out: IC50 for displacement of photolabeling of the 23 kDa protein, [32P]-5N3-8-ethynyl-NAADP (0.23 nM) photoprobe, densitometry
[3] = system: 35 kDa protein; assay type: binding, human; conditions: U2OS cell extracts; for IC50: read-out: IC50 for displacement of photolabeling of the 35 kDa band, [32P]-5N3-8-ethynyl-NAADP (0.23 nM) photoprobe, densitometry
[4] = target: NAADP receptor; experiment: Self-desensitization to subsequent 1 μM NAADP in sea urchin egg homogenate; assay type: biochemical, Strongylocentrotus purpuratus; conditions: read-out: IC50 for desensitization to NAADP-evoked Ca2+ release, subsequent addition of 1 μM NAADP, n = 3, ± STDEV
[5] = target: NAADP receptor; experiment: Ca2+ release assay in sea urchin egg homogenate; assay type: biochemical, Strongylocentrotus purpuratus; conditions: read-out: Ca2+ mobilizing EC50, fluo-3, n = 3, ± STDEV

SMILES	peak F/F0 (Ca2+ response) ([1]; 100 nM in pipette, n = 3 injections)	displacement of 23 kDa photolabeling, more penetrant compared to NADP ([2]; ratio of IC50 values NADP/NAADP)	IC50 [2]	lower affinity of the 35 kDa band in contrast to the 23 kDa band ([3]; ratio of IC50 values 35 kDa/23 kDa)	IC50 [3]	peak F/F0 (Ca2+ response) ([1]; 1 μM in pipette, n = 3)	peak F/F0 (Ca2+ response) ([1]; 10 μM in pipette, n = 3)	IC50 [4]	EC50 [5]
Nc1ncnc2c1ncn2[C@@H]1O[C@H](COP(=O)(O)OP(=O)(O)OCC2OC([n+]3cccc(C(=O)[O-])c3)C(O)C2O)[C@@H](O)[C@H]1OP(=O)(O)O (stereo in doubt) [NAADP, nicotinic acid adenine dinucleotide 2′-phosphate]	4.01 ± 1.2	~ 9 fold	27 ± 1.3 nM	~ 8 fold	213 ± 19 nM	–	–	–	–
C#Cc1nc2c(N)ncnc2n1C1OC(COP(=O)(O)OP(=O)(O)OC[C@H]2O[C@@H]([n+]3cc(N=[N+]=[N-])cc(C(=O)[O-])c3)[C@H](O)[C@@H]2O)C(O)C1OP(=O)(O)O (some centres unmarked) [5N3-8-ethynyl-NAADP, 5-Azido-8-ethynyl-NAADP]	–	–	–	–	–	2.14 ± 0.37	2.8 ± 0.33	99 ± 7.7 nM	2860 ± 400 nM
NC(=O)c1ccc[n+]([C@@H]2O[C@H](COP(=O)([O-])OP(=O)(O)OC[C@H]3O[C@@H](n4cnc5c(N)ncnc54)[C@H](OP(=O)(O)O)[C@@H]3O)[C@@H](O)[C@H]2O)c1 [NADP, nicotinamide adenine dinucleotide 2′-phosphate]	–	–	246 ± 13 nM	–	940 ± 204 nM	–	–	–	–
